This is an account of results in patent US10183944B2 (Asana Biosciences, LLC, priority 2011, dated 2019).

SMILES strings stand for the structures. Structures can show the parent of a compound that is named as a salt. Where two headings read alike, the source gives them in different places.

One assay has as its target JAK2 (Homo sapiens (Human), UniProt O60674). Kind of assay: Inhibition of enzymatic JAK2 kinase activity (TR-FRET). It counts as biochemical. The following applies: read-out: IC50 JAK. Summed up:
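TR-FRET read-out (Eu antibody donor, Ulight poly Glu-Tyr acceptor, 665/615 nm ratio) after a 60 min RT kinase reaction with ATP, begun following 30 min compound–enzyme preincubation. Stopped by EDTA; inhibition expressed as 100 minus % activity of positive control.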
(In general: TR-FRET usually uses a lanthanide donor and a delayed reading to cut background.)

For another assay, the system named is RBL2H3 cells. The assay is described as follows: Degranulation assay: β-hexosaminidase release during immune complex mediated degranulation. It counts as cell-based, rat. The following applies: for inhibition at 1 µM: read-out: Degranulation % inhibition at 1 μM; for EC50: read-out: Degranulation EC50. The method, then:
The objective of this assay was to examine by Fluorescence method the effect of compounds on β-hexosaminidase release during immune complex mediated degranulation in RBL2H3 cells. Compounds were tested for their ability to inhibit the ability of this immune complex to mediate β-hexosaminidase release, in an enzyme assay with […] as substrate. […] Emission 460 nm). [table] [table] RBL2H3 cells were maintained in MEM complete media containing 10% FBS at 70%-80% confluence in a mammalian cell culture CO2 incubator with 5% CO2 at 37° C. 2×10^5 cells/well were plated in 1 mL of complete media and incubated for 5 hours for cell attachment. Complete media was replaced with 1 mL of serum free MEM media containing 1.2 μg/mL of anti-DNP rat IgE as sensitizing agent and further incubated overnight with 5% CO2 at 37° C. […] Cells were further stimulated with 5 μg/mL of DNP-BSA for 60 minutes. Plates were centrifuged for 5 minutes at 1000 rpm and 25 μL of culture supernatant was transferred from each assay well into a 96 well black coated plate. 25 μL β-NAG substrate was added to this mixture and incubated at room temperature for 30 minutes. The reaction was terminated with 100 μL of stop solution and fluorescence was monitored. (Excitation 355 nm; Emission 460 nm) See, Sanderson, (2010), Cellular Immunology, 262(1): 28-34 and Silverman, (2006) MCB, 26(5):1826-1838, which are incorporated herein by reference. The % release of β-Hexosaminidase for the test compound was calculated using the following formula: RBL2H3 cells were maintained in MEM complete media containing 10% FBS at 70-80% confluence in a mammalian cell culture CO2 incubator with 5% CO2 at 37° C. 5×10^4 cells/well were plated in 200 μL of complete media containing 0.3 μg/mL of anti-DNP rat IgE as sensitizing agent for 24 hours at 37° C. & 5% CO2. The following day, cells were washed twice with PIPES buffer for 10 minutes at 37° C. and replenished with serum free MEM media. Cells were treated with various concentrations of test compounds (in 0.5% DMSO) for 15 minutes at 37° C. and 5% CO2. The cells were further stimulated with 0.1 μg/mL of DNP-BSA for 45 minutes. The plates were spun for 5 minutes at 2000 rpm and 25 μL of culture supernatant was then transferred from each assay well into a 96 well black coated plate. […] β-NAG substrate was added and incubated at RT for 30 minutes. After incubation with substrate, 150 μL of stop solution was added and fluorescence was monitored. (Excitation 355 nm; Emission 460 nm). See, Yamamoto, JPET, 306(3):1174-1181 (2003) and Taylor, MCB, 15(8): 4149-4157 (1995), which are herein incorporated by reference. Release of β-hexosaminidase during the degranulation process by immune complex mediated FcεRI stimulation is through the SYK pathway. The % inhibition of β-hexosaminidase release by Syk inhibitor gives information with regard to its Syk inhibition potency.

In assay [1] the target is Syk (356-635 amino acids) catalytic domain (Homo sapiens (Human), UniProt P43405). Kind of assay: Inhibition of enzymatic Syk kinase activity (radiometric). The following applies: read-out: IC50 Syk. It counts as biochemical. In short, it runs like this: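 Radiometric filter-binding format: 32P transfer from γ-32P-ATP onto pG4T, scintillation-counted after acid washes of P81 paper. Syk kinase domain (356-635), 0.035–7.5 ng per reaction, was exposed to compound for 30 minutes at room temperature before a 10-minute, 30° C. reaction with ATP (100 μM stock). Inhibition derived from counts with versus without compound.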

Where [2] appears, read: Rattus norvegicus, RBL-2H3, 1 μM, Assay Protocol A (24 well format).
Setting [3] is: Rattus norvegicus, RBL-2H3, 1 μM, Assay Protocol B (96 well format).
Where [4] appears, read: Rattus norvegicus, RBL-2H3, Assay Protocol B (96 well format).

Sequence of JAK2 (O60674 808-1132): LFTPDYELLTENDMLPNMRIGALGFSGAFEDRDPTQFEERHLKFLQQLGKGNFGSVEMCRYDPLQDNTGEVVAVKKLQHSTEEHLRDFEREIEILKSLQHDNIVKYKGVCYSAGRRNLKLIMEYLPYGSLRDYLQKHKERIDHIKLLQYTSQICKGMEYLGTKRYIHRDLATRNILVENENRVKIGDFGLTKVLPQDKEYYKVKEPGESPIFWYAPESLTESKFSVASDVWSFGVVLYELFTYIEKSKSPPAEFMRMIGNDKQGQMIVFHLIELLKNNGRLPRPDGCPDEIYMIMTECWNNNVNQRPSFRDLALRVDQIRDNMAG

One may read the IC50 as the concentration that gives 50% inhibition. In general, inhibition refers to the percentage by which the read-out fell short of the control. Turning to `O=c1[nH]ncc2nc(-c3ccccc3)nc(Nc3ccc(N4CCOCC4)cc3)c12` [Example 1, 4-(4-morpholinophenylamino)-2-phenylpyrimido[5,4-d]pyridazin-5(6H)-one], the 50% inhibitory concentration (IC50) (at JAK2; in assay [1]) was below 50 nM in each case. The inhibition at 1 µM with RBL2H3 cells (setting [2]) was determined as 85%.

What is called EC50 is the concentration at which the effect is half-maximal. Consider `CCN1CCN(c2ccc(Nc3nc(-c4ccccc4)nc4cn[nH]c(=O)c34)cc2)CC1` [Example 5, 4-(4-(4-ethylpiperazin-1-yl)phenylamino)-2-phenylpyrimido[4,5-d]pyridazin-5(6H)-one], for which the IC50 is below 50 nM on JAK2 and below 10 nM in assay [1]. The inhibition at 1 µM with RBL2H3 cells (setting [2]) worked out at 100%. The concentration giving a half-maximal response (EC50) in the assay with RBL2H3 cells (Rattus norvegicus, RBL-2H3, Assay Protocol A (24 well format)) came out at 39 nM.

Consider `CCN1CCN(Cc2ccc(Nc3nc(-c4ccccc4)nc4cn[nH]c(=O)c34)cc2)CC1` [Example 6, 4-(4-((4-ethylpiperazin-1-yl)methyl)phenylamino)-2-phenylpyrimido[4,5-d]pyridazin-5(6H)-one], for which the concentration for half-maximal inhibition (IC50) (on JAK2; in assay [1]) was below 50 nM each time. Moreover, the inhibition at 1 µM in the assay on RBL2H3 cells (setting [2]) amounted to 50%.

On to `O=c1[nH]ncc2nc(-c3ccccc3)nc(Nc3ccc(N4CCNCC4)cc3)c12` [Example 8, 2-phenyl-4-(4-(piperazin-1-yl)phenylamino)pyrimido[4,5-d]pyridazin-5(6H)-one], for which the half-inhibitory concentration (IC50) (at JAK2; in assay [1]) was below 10 nM throughout. Further, the inhibition at 1 µM in the assay with RBL2H3 cells (setting [2]) was found to be 98%.

On to `O=c1[nH]ncc2nc(-c3ccccc3)nc(Nc3ccc(N(CCO)CCO)cc3)c12` [Example 10, 4-(4-(bis(2-hydroxyethyl)amino)phenylamino)-2-phenylpyrimido[4,5-d]pyridazin-5(6H)-one], for which the results for the half-inhibitory concentration (IC50) (on JAK2; in assay [1]) were below 100 nM and below 50 nM, respectively. Further, the inhibition at 1 µM with RBL2H3 cells (setting [2]) was 100%.

For `NCC(=O)N1CCN(c2ccc(Nc3nc(-c4ccccc4)nc4cn[nH]c(=O)c34)cc2)CC1` [Example 11, 4-(4-(4-(2-aminoacetyl)piperazin-1-yl)phenylamino)-2-phenylpyrimido[4,5-d]pyridazin-5(6H)-one hydrochloride], the concentration for half-maximal inhibition (IC50) is below 100 nM at JAK2 and below 50 nM in assay [1] (hydrochloride). Besides, the inhibition at 1 µM in the assay on RBL2H3 cells (setting [2]) is 100%.

Take `O=c1[nH]ncc2nc(-c3ccsc3)nc(Nc3ccc(CN4CCNCC4)cc3)c12` [Example 24, 4-(4-(piperazin-1-ylmethyl)phenylamino)-2-(thiophen-3-yl) pyrimido[4,5-d]pyridazin-5(6H)-one hydrochloride]: the half-maximal inhibitory concentration (IC50) on JAK2 is below 100 nM; in assay [1], below 10 nM. Further, the inhibition at 1 µM with RBL2H3 cells (setting [3]) was found to be 83%.

`O=C(O)C1CC12CCN(c1nc(Nc3ccc(CN4CCNCC4)cc3)c3c(=O)[nH]ncc3n1)CC2` (centres unmarked) [Example 25, 6-(5-oxo-4-(4-(piperazin-1-ylmethyl)phenylamino)-5,6-dihydropyrimido[4,5-d]pyridazin-2-yl)-6-azaspiro[2.5]octane-1-carboxylic acid hydrochloride]: the IC50 at JAK2 was below 100 nM; in assay [1] it was below 50 nM. Moreover, in the assay with RBL2H3 cells (setting [2]), the inhibition at 1 µM was 79%.

Take `N#CCC1CCN(c2nc(Nc3ccc(N4CCC5(CC4)CC5C(=O)O)cc3)c3c(=O)[nH]ncc3n2)CC1` (centres unmarked) [Example 66, 6-(4-((2-(4-(cyanomethyl)piperidin-1-yl)-5-oxo-5,6-dihydropyrimido[4,5-d]pyridazin-4-yl)amino)phenyl)-6-azaspiro[2.5]octane-1-carboxylic acid]: the inhibition at 1 µM in the assay on RBL2H3 cells (setting [3]) worked out at 75%. For the same molecule, the half-maximal effective concentration (EC50) in the assay on RBL2H3 cells (setting [4]) came out at 352 nM. The IC50 in assay [1] was below 50 nM.

Consider `O=C(c1ccc(Nc2nc(N3CCCCCC3)nc3cn[nH]c(=O)c23)cc1)N1CCOCC1` [Example 68, 2-(azepan-1-yl)-4-((4-(morpholine-4-carbonyl)phenyl)amino)pyrimido[4,5-d]pyridazin-5(6H)-one], for which the inhibition at 1 µM in the assay with RBL2H3 cells (setting [3]) was determined as 100%. For the same molecule, the 50% effective concentration (EC50) in the assay on RBL2H3 cells (setting [4]) is 1.2 nM. Besides, in assay [1], the concentration for half-maximal inhibition (IC50) was below 100 nM.

Turning to `O=C(O)CC1CCN(c2ccc(Nc3nc(N4CCCCCC4)nc4cn[nH]c(=O)c34)cc2)CC1` [Example 69, 2-(1-(4-((2-(azepan-1-yl)-5-oxo-5,6-dihydropyrimido[4,5-d]pyridazin-4-yl)amino)phenyl)piperidin-4-yl)acetic acid], the inhibition at 1 µM in the assay on RBL2H3 cells (setting [3]) came out at 100%. For the same molecule, the EC50 with RBL2H3 cells (setting [4]) stood at 31 nM. For the same molecule, the concentration for half-maximal inhibition (IC50) in assay [1] was below 10 nM.

Consider `CCN1CCN(CCOc2ccc(Nc3nc(N4CCCCCC4)nc4cn[nH]c(=O)c34)cc2)CC1` [Example 151, 2-(azepan-1-yl)-4-((4-(2-(4-ethylpiperazin-1-yl)ethoxy)phenyl)amino) pyrimido[4,5-d]pyridazin-5(6H)-one], for which the EC50 in the assay with RBL2H3 cells (setting [4]) was 24 nM.

On to `O=c1[nH]ncc2nc(N3CCCCCC3)nc(Nc3ccc(OCCN4CCCNCC4)cc3)c12` [Example 164, 4-((4-(2-(1,4-diazepan-1-yl)ethoxy)phenyl)amino)-2-(azepan-1-yl)pyrimido[4,5-d]pyridazin-5(6H)-one], for which the 50% effective concentration (EC50) in the assay on RBL2H3 cells (setting [4]) stood at 55 nM.

With `N#CCC1CCN(c2nc(Nc3ccc(OCCC4CCNCC4)cc3)c3c(=O)[nH]ncc3n2)CC1` [Example 169, 2-(1-(5-oxo-4-((4-(2-(piperidin-4-yl)ethoxy)phenyl)amino)-5,6-dihydropyrimido[4,5-d]pyridazin-2-yl)piperidin-4-yl)acetonitrile], in the assay on RBL2H3 cells (setting [3]), the inhibition at 1 µM is 17%. Further, in the assay with RBL2H3 cells (setting [4]), the 50% effective concentration (EC50) was 230 nM. Further, the half-maximal inhibitory concentration (IC50) in assay [1] is below 50 nM.

For `CN(c1nc(Nc2ccc(N3CCC4(CC3)CC4C(=O)O)cc2)c2c(=O)[nH]ncc2n1)C1CCCCC1` (centres unmarked) [Example 170, 6-(4-((2-(cyclohexyl(methyl)amino)-5-oxo-5,6-dihydropyrimido[4,5-d]pyridazin-4-yl)amino)phenyl)-6-azaspiro[2.5]octane-1-carboxylic acid], the inhibition at 1 µM in the assay on RBL2H3 cells (setting [3]) was 39%. In the assay on RBL2H3 cells (setting [4]), the EC50 was 107 nM.

Regarding `N#CCC1CCN(c2nc(Nc3ccc(CCCN4CCNCC4)cc3)c3c(=O)[nH]ncc3n2)CC1` [Example 174, 2-(1-(5-oxo-4-((4-(3-(piperazin-1-yl)propyl)phenyl)amino)-5,6-dihydropyrimido[4,5-d]pyridazin-2-yl)piperidin-4-yl)acetonitrile], the inhibition at 1 µM with RBL2H3 cells (setting [3]) came to 99%. Besides, the EC50 in the assay with RBL2H3 cells (setting [4]) was 15 nM.

`O=c1[nH]ncc2nc(N3CCCCCC3)nc(Nc3ccc(N4CCN(CCO)CC4)cc3)c12` [Example 190, 2-(azepan-1-yl)-4-((4-(4-(2-hydroxyethyl)piperazin-1-yl)phenyl)amino)pyrimido[4,5-d]pyridiazin-5(6H)-one]: the “Degranulation % inhibition at 1 μM” value in the assay on RBL2H3 cells (1 μM, Assay Protocol B (96 well format)) came out at 83%. For the same molecule, the EC50 with RBL2H3 cells (Assay Protocol B (96 well format)) stood at 21 nM.

For `CCN1CCN(CCc2ccc(Nc3nc(N4CCCCCC4)nc4cn[nH]c(=O)c34)cc2)CC1` [Example 209, 2-(azepan-1-yl)-4-((4-(2-(4-ethylpiperazin-1-yl)ethyl)phenyl)amino) pyrimido[4,5-d]pyridazin-5(6H)-one], the inhibition at 1 µM in the assay on RBL2H3 cells (setting [3]) turned out to be 81%. Further, the concentration giving a half-maximal response (EC50) in the assay with RBL2H3 cells (setting [4]) was found to be 29 nM. Further, the IC50 in assay [1] was below 10 nM.

For the molecule `N#CCC1CCN(c2nc(Nc3ccc(N4CCC(F)CC4)cc3)c3c(=O)[nH]ncc3n2)CC1` [Example 290, 2-(1-(4-((4-(4-fluoropiperidin-1-yl)phenyl)amino)-5-oxo-5,6-dihydropyrimido[4,5-d]pyridazin-2-yl)piperidin-4-yl)acetonitrile], in the assay on RBL2H3 cells (setting [3]), the inhibition at 1 µM came to 100%. Besides, the 50% effective concentration (EC50) with RBL2H3 cells (setting [4]) came to 20 nM.
